Patent US9187453B2, “Heterocyclic compound” (Takeda Pharmaceutical Company Limited, priority 2012, dated 2015)
Counter-ions that a name gives are not always drawn.

Each molecule was assayed on IL-23 (assay: IL-23-induced IL-22 in rat auricle tissue). Settings: 10 mg/kg, q.d., oral, 30 min before intradermal mouse IL-23 into right auricle; IL-22 in auricle tissue by ELISA about 24 hr later; mean of n=6.
Assay type: in vivo
Method: Recombinant mouse IL-23 (1 μg/20 μL/site) was intradermally administered into the right auricle of 7-8-week-old LEWEIS male rat. As control, phosphate buffered saline (PBS) which is a solvent was administered instead of IL-23. Then, a drug (the compound of Example 103) suspended in 0.5% methyl cellulose (MC) was orally administered 30 min before IL-23 administration, respectively. 0.5% MC was used as vehicle. The auricle tissues of 6 mm diameter were collected about 24 hr after IL-23 administration. Lysis buffer was added thereto, the tissues were crushed using beads, and centrifugalized, and the supernatant was collected. IL-22 in the tissues was measured using ELISA kit (R & D Systems). The result is shown below as a IL-23 inhibitory rate relative to vehicle. (mean of n=6)

Row | Compound | IL-23 inhibitory rate relative to vehicle
1 | CC(C)(CO)n1cc(Nc2nccc(N3CC[C@@](C#N)(C4CC4)C3=O)n2)cn1 [Example 103, (3S)-3-cyclopropyl-1-(2-((1-(1-hydroxy-2-methylpropan-2-yl)-1H-pyrazol-4-yl)amino)pyrimidin-4-yl)-2-oxopyrrolidine-3-carbonitrile] | 79%

Each molecule was assayed against T1, Tyk2 (Homo sapiens, UniProt P29597) (assay: Tyk2 enzyme inhibition test (LANCE method)). Settings: compound 1 μM; Tyk2 (Invitrogen), ULight-JAK1 substrate, ATP; well without enzyme = 100% inhibition; read-out: Tyk2 enzyme inhibitory activity (%, 1 μM).
T1 construct: purchased Invitrogen
Assay type: biochemical
Method: Tyk2 enzyme inhibitory activity of test compounds was measured by LANCE method (PerkinElmer). First, a test compound diluted with assay buffer (50 mM HEPES (pH=7.5), […], 1 mM EGTA, 2 mM DTT, 0.01% Tween20, 0.01% BSA) was added to 384-well plate at 2 μL each. Then, a Tyk2 (Invitrogen) solution and a fluorescence-labeled peptide substrate (ULight-JAK1, PerkinElmer) solution diluted with assay buffer at 375 ng/mL and 300 nM, respectively were added at 2 μL each. Then, enzyme reaction was started by adding 2 μL each of ATP solution prepared with assay buffer at 30 μM. After the reaction at room temperature for 1 hr, Detection Buffer (PerkinElmer) prepared to be 20 mM EDTA, 4 nM europium-labeled anti-phosphotyrosine antibody (PerkinElmer) was added at 6 μL each. After standing at room temperature for 1 hr, fluorescence intensity (excitation wavelength 340 nm, fluorescence wavelength 665 nm, delay time 100 microsecond) was measured by a plate reader, Envision (PerkinElmer). The inhibitory activity of each compound was calculated as relative value where fluorescence intensity of a well without enzyme is considered as 100% inhibition.

T1 sequence (P29597 whole entry): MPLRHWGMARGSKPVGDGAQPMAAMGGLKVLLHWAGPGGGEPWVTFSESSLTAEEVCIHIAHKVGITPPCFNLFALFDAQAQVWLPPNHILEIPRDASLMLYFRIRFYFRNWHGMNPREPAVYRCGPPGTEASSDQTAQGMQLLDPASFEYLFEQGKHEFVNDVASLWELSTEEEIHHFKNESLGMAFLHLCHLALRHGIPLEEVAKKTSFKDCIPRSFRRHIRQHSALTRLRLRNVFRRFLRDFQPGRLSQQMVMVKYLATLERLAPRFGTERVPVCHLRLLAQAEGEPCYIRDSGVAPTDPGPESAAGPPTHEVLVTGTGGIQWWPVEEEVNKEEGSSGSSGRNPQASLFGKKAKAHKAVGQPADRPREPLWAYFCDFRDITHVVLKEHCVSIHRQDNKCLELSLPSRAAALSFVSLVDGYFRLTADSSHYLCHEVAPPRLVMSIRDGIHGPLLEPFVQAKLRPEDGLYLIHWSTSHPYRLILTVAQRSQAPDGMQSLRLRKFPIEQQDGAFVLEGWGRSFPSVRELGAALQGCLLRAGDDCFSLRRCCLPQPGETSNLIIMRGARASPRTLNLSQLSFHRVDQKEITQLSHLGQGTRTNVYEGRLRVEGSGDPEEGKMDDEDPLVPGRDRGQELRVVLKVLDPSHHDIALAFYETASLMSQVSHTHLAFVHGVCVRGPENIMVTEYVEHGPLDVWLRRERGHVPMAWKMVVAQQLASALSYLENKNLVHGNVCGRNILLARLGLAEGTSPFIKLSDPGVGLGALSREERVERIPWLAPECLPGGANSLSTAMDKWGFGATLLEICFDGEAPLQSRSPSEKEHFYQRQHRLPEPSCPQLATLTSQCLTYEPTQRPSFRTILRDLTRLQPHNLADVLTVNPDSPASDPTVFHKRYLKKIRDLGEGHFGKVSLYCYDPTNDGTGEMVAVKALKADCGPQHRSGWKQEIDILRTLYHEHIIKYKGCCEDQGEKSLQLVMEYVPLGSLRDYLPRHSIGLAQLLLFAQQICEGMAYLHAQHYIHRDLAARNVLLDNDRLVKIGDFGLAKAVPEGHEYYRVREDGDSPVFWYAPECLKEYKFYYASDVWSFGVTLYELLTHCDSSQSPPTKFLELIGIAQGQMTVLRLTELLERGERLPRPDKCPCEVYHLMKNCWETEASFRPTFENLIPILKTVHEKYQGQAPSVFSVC

Row | Compound | inhibition at 1 µM
2 | CCC1(C#N)CCN(c2ccnc(NCc3ccc(C#N)cc3)n2)C1=O (centres unmarked) [Example 61, 1-(2-((4-cyanobenzyl)amino)pyrimidin-4-yl)-3-ethyl-2-oxopyrrolidine-3-carbonitrile] | 14%
3 | CCC1(CC#N)CCN(c2ccnc(Nc3cnn(C)c3)n2)C1=O (centres unmarked) [Example 31, (3-ethyl-1-(2-((1-methyl-1H-pyrazol-4-yl)amino)pyrimidin-4-yl)-2-oxopyrrolidin-3-yl)acetonitrile] | 98%
4 | CNC(=O)Cn1cc(Nc2nccc(N3CC[C@@](C#N)(C(C)C)C3=O)n2)cn1 [Example 86, 2-(4-((4-((3S)-3-cyano-3-isopropyl-2-oxopyrrolidin-1-yl)pyrimidin-2-yl)amino)-1H-pyrazol-1-yl)-N-methylacetamide hydrochloride] | 100%
5 | CCC1(C#N)CCN(c2ccnc(NCC3CC3)n2)C1=O (centres unmarked) [Example 77, 1-(2-((cyclopropylmethyl)amino)pyrimidin-4-yl)-3-ethyl-2-oxopyrrolidine-3-carbonitrile] | 22%
6 | CC(C)[C@]1(C#N)CCN(c2ccnc(Nc3cnn(CCC(=O)N(C)C)c3)n2)C1=O [Example 265, 3-(4-((4-((3S)-3-cyano-3-isopropyl-2-oxopyrrolidin-1-yl)pyrimidin-2-yl)amino)-1H-pyrazol-1-yl)-N,N-dimethylpropanamide] | 99%
7 | CNC(=O)Cn1cc(Nc2nccc(N3CC[C@](C#N)(C4CC4)C3=O)n2)cn1 [Example 133, 2-(4-((4-((3R)-3-cyano-3-cyclopropyl-2-oxopyrrolidin-1-yl)pyrimidin-2-yl)amino)-1H-pyrazol-1-yl)-N-methylacetamide hydrochloride] | 24%
8 | CCC1(CC)CC(C)N(c2ccnc(Nc3cnn(C)c3)n2)C1=O (centres unmarked) [Example 33, 3,3-diethyl-5-methyl-1-(2-((1-methyl-1H-pyrazol-4-yl)amino)pyrimidin-4-yl)pyrrolidin-2-one hydrochloride] | 97%
9 | CC(C)[C@]1(C#N)CCN(c2ccnc(Nc3ccc(N4CCOCC4)cc3)n2)C1=O [Example 7, (3S)-3-isopropyl-1-(2-((4-(morpholin-4-yl)phenyl)amino)pyrimidin-4-yl)-2-oxopyrrolidine-3-carbonitrile] | 100%
10 | CC(C)[C@]1(C#N)CCN(c2ccnc(Nc3cnn(CC(=O)N(C)C)c3)n2)C1=O [Example 87, 2-(4-((4-((3S)-3-cyano-3-isopropyl-2-oxopyrrolidin-1-yl)pyrimidin-2-yl)amino)-1H-pyrazol-1-yl)-N,N-dimethylacetamide hydrochloride] | 100%
11 | Cn1cc(Nc2nccc(N3CCCC(C)(C)C3=O)n2)cn1 [Example 101, 3,3-dimethyl-1-(2-((1-methyl-1H-pyrazol-4-yl)amino)pyrimidin-4-yl) piperidin-2-one hydrochloride] | 88%
12 | Cn1cc(Nc2ncc(F)c(N3CCC(C)(C)C3=O)n2)cn1 [Example 29, 1-(5-fluoro-2-((1-methyl-1H-pyrazol-4-yl)amino)pyrimidin-4-yl)-3,3-dimethylpyrrolidin-2-one] | 91%
13 | CCC1(C#N)CCN(c2ccnc(Nc3cnn(C)c3)n2)C1=O (centres unmarked) [Example 1, 3-ethyl-1-(2-((1-methyl-1H-pyrazol-4-yl)amino)pyrimidin-4-yl)-2-oxopyrrolidine-3-carbonitrile] | 99%
14 | CC(C)[C@]1(C#N)CCN(c2ccnc(Nc3cnn(CC(N)=O)c3)n2)C1=O [Example 85, 2-(4-((4-((3S)-3-cyano-3-isopropyl-2-oxopyrrolidin-1-yl)pyrimidin-2-yl)amino)-1H-pyrazol-1-yl)acetamide hydrochloride] | 100%
15 | CC(C)(C(N)=O)n1cc(Nc2nccc(N3CC[C@@](C#N)(C4CC4)C3=O)n2)cn1 [Example 109, 2-(4-((4-((3S)-3-cyano-3-cyclopropyl-2-oxopyrrolidin-1-yl)pyrimidin-2-yl)amino)-1H-pyrazol-1-yl)-2-methylpropanamide hydrochloride] | 99%
16 | N#C[C@@]1(C2CC2)CCN(c2ccnc(Nc3cnn(C4(CO)CC4)c3)n2)C1=O [Example 128, (3S)-3-cyclopropyl-1-(2-((1-(1-(hydroxymethyl)cyclopropyl)-1H-pyrazol-4-yl)amino)pyrimidin-4-yl)-2-oxopyrrolidine-3-carbonitrile] | 100%
17 | CC[C@]1(C#N)CCN(c2ccnc(Nc3ccc(N4CCOCC4)cc3)n2)C1=O [Example 4, (3R)-3-ethyl-1-(2-((4-(morpholin-4-yl)phenyl)amino)pyrimidin-4-yl)-2-oxopyrrolidine-3-carbonitrile] | 100%
18 | CC(C)(CO)n1cc(Nc2nccc(N3CC[C@@](C#N)(C4CC4)C3=O)n2)cn1 [Example 103, (3S)-3-cyclopropyl-1-(2-((1-(1-hydroxy-2-methylpropan-2-yl)-1H-pyrazol-4-yl)amino)pyrimidin-4-yl)-2-oxopyrrolidine-3-carbonitrile] | 100%
19 | CCC1(CC)CCN(c2ccnc(Nc3cnn(C)c3)n2)C1=O [Example 10, 3,3-diethyl-1-(2-((1-methyl-1H-pyrazol-4-yl)amino)pyrimidin-4-yl)pyrrolidin-2-one hydrochloride] | 97%
20 | CNC(=O)Cn1cc(Nc2nccc(N3CC[C@@](C#N)(C4CC4)C3=O)n2)cn1 [Example 134, 2-(4-((4-((3S)-3-cyano-3-cyclopropyl-2-oxopyrrolidin-1-yl)pyrimidin-2-yl)amino)-1H-pyrazol-1-yl)-N-methylacetamide hydrochloride] | 99%
21 | CCC1(CC)CCN(c2ccnc(Nc3ccccc3)n2)C1=O [Example 15, 1-(2-anilinopyrimidin-4-yl)-3,3-diethylpyrrolidin-2-one] | 89%
22 | Cn1cc(Nc2nccc(N3CCCC3=O)n2)cn1 [Example 12, 1-(2-((1-methyl-H-pyrazol-4-yl)amino)pyrimidin-4-yl)pyrrolidin-2-one] | 51%
23 | CCC1(C#N)CCN(c2ccnc(NCc3ccco3)n2)C1=O (centres unmarked) [Example 72, 3-ethyl-1-(2-((2-furylmethyl)amino)pyrimidin-4-yl)-2-oxopyrrolidine-3carbonitrile] | 20%
